Values quoted from earlier work as cited in patent publication US20140315941A1, “METHOD OF REDUCING CNS AND GASTRO[…] AFFECTS ASSOCIATED WITH LONG-TERM, DEXTROMETHORPHAN/LOW-DOSE QUINIDINE COMBINATION THERAPY” (Avanir Pharmaceuticals, Inc., priority 2009, published 2014).

Columns and labels:
[1] = system: pain threshold in CYP2D6 extensive and poor metabolizers; details: extensive vs poor metabolizers
[2] = some patients with Huntington's disease; DM doses eight times the maximum antitussive dose
CYP2D6 = CYP2D6 (Homo sapiens, UniProt P10635); details: in vitro
CYP2D6, sequence (P10635 whole entry): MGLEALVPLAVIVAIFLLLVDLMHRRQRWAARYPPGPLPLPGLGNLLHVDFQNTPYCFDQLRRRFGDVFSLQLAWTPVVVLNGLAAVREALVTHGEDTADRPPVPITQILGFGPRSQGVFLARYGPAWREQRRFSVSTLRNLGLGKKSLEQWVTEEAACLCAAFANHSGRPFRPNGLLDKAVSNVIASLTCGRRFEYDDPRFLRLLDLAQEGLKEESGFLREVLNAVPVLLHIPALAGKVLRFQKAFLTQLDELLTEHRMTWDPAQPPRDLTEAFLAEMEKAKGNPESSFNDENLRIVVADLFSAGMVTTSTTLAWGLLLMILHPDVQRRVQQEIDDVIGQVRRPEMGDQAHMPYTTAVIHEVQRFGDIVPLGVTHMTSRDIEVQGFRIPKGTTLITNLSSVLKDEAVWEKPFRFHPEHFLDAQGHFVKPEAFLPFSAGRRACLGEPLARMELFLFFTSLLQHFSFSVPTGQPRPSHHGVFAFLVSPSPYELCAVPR

Row | SMILES | antinociceptive effects (increase of pain threshold) [1] | plasma concentrations [2] | inhibition of CYP2D6 activity (potency, words) (CYP2D6)
1 | COc1ccc2c(c1)[C@]13CCCCC1[C@H](C2)N(C)CC3 (single isomer, unassigned; (+)) [DM, (+)-3-methoxy-N-methylmorphinan] | significant in poor metabolizers but not in extensive metabolizers | undetectable | –
2 | C=C[C@H]1C[N@@]2CC[C@H]1C[C@@H]2[C@@H](O)c1ccnc2ccc(OC)cc12 [Quinidine, quinidine] | – | – | one of the most potent
